Laboratory results: article PMC3465515 (Nuclear medicine and biology, 2012)
Like-named read-outs stand apart in the source and are kept apart here.

Columns and labels:
[1] = preliminary tissue distribution of [18F]6 in female C57BL/6 mice; format: in vivo; settings: data not shown
[2] = format: in vivo, Sprague-Dawley rats; settings: 1 h, Letrozole + PMSG treated
[3] = biodistribution of [18F]6 in immature female Sprague-Dawley rats; format: in vivo; settings: 1 h

SMILES: C[C@]12CC[C@@H]3c4ccc(O)cc4CC[C@@]3(CC[18F])[C@@H]1CC[C@@H]2O [[^18F]6, 8β-(2-[^18F]fluoroethyl)estradiol]
- tissue distribution (in words) [1]: elevated lung uptake
- percentage injected dose/gram, blood ([2]; DPN blocked (200 μg)): 0.17 ± 0.03 %ID/g
- percentage injected dose/gram, blood ([2]; E2 blocked (estradiol 20 μg)): 0.19 ± 0.02 %ID/g
- percentage injected dose/gram, blood ([2]; PPT blocked (200 μg)): 0.16 ± 0.03 %ID/g
- percentage injected dose/gram, blood ([2]; 18 μCi iv): 0.23 ± 0.07 %ID/g
- percentage injected dose/gram, bone ([2]; DPN blocked (200 μg)): 0.37 ± 0.07 %ID/g
- percentage injected dose/gram, bone ([2]; E2 blocked (estradiol 20 μg)): 0.33 ± 0.02 %ID/g
- percentage injected dose/gram, bone ([2]; PPT blocked (200 μg)): 0.34 ± 0.05 %ID/g
- percentage injected dose/gram, bone ([2]; 18 μCi iv): 0.40 ± 0.10 %ID/g
- percentage injected dose/gram, fat ([2]; DPN blocked (200 μg)): 0.53 ± 0.18 %ID/g
- percentage injected dose/gram, fat ([2]; E2 blocked (estradiol 20 μg)): 0.50 ± 0.11 %ID/g
- percentage injected dose/gram, fat ([2]; PPT blocked (200 μg)): 0.53 ± 0.16 %ID/g
- percentage injected dose/gram, fat ([2]; 18 μCi iv): 0.49 ± 0.12 %ID/g
- percentage injected dose/gram, heart ([2]; DPN blocked (200 μg)): 0.15 ± 0.02 %ID/g
- percentage injected dose/gram, heart ([2]; E2 blocked (estradiol 20 μg)): 0.14 ± 0.01 %ID/g
- percentage injected dose/gram, heart ([2]; PPT blocked (200 μg)): 0.14 ± 0.02 %ID/g
- percentage injected dose/gram, heart ([2]; 18 μCi iv): 0.17 ± 0.03 %ID/g
- percentage injected dose/gram, kidney ([2]; DPN blocked (200 μg)): 0.59 ± 0.11 %ID/g
- percentage injected dose/gram, kidney ([2]; E2 blocked (estradiol 20 μg)): 0.55 ± 0.08 %ID/g
- percentage injected dose/gram, kidney ([2]; PPT blocked (200 μg)): 0.51 ± 0.09 %ID/g
- percentage injected dose/gram, kidney ([2]; 18 μCi iv): 0.66 ± 0.12 %ID/g
- percentage injected dose/gram, liver ([2]; DPN blocked (200 μg)): 1.41 ± 0.22 %ID/g
- percentage injected dose/gram, liver ([2]; E2 blocked (estradiol 20 μg)): 1.51 ± 0.13 %ID/g
- percentage injected dose/gram, liver ([2]; PPT blocked (200 μg)): 1.40 ± 0.12 %ID/g
- percentage injected dose/gram, liver ([2]; 18 μCi iv): 1.67 ± 0.31 %ID/g
- percentage injected dose/gram, lung ([2]; DPN blocked (200 μg)): 0.36 ± 0.05 %ID/g
- percentage injected dose/gram, lung ([2]; E2 blocked (estradiol 20 μg)): 0.38 ± 0.04 %ID/g
- percentage injected dose/gram, lung ([2]; PPT blocked (200 μg)): 0.36 ± 0.06 %ID/g
- percentage injected dose/gram, lung ([2]; 18 μCi iv): 0.41 ± 0.02 %ID/g
- percentage injected dose/gram, muscle ([2]; DPN blocked (200 μg)): 0.13 ± 0.02 %ID/g
- percentage injected dose/gram, muscle ([2]; E2 blocked (estradiol 20 μg)): 0.12 ± 0.01 %ID/g
- percentage injected dose/gram, muscle ([2]; PPT blocked (200 μg)): 0.12 ± 0.02 %ID/g
- percentage injected dose/gram, muscle ([2]; 18 μCi iv): 0.14 ± 0.03 %ID/g
- percentage injected dose/gram, ovaries ([2]; DPN blocked (200 μg)): 0.32 ± 0.10 %ID/g
- percentage injected dose/gram, ovaries ([2]; E2 blocked (estradiol 20 μg)): 0.30 ± 0.06 %ID/g
- percentage injected dose/gram, ovaries ([2]; PPT blocked (200 μg)): 0.30 ± 0.05 %ID/g
- percentage injected dose/gram, ovaries ([2]; 18 μCi iv): 0.34 ± 0.04 %ID/g
- percentage injected dose/gram, spleen ([2]; DPN blocked (200 μg)): 0.12 ± 0.01 %ID/g
- percentage injected dose/gram, spleen ([2]; E2 blocked (estradiol 20 μg)): 0.12 ± 0.07 %ID/g
- percentage injected dose/gram, spleen ([2]; PPT blocked (200 μg)): 0.12 ± 0.02 %ID/g
- percentage injected dose/gram, spleen ([2]; 18 μCi iv): 0.13 ± 0.16 %ID/g
- percentage injected dose/gram, thymus ([2]; DPN blocked (200 μg)): 0.09 ± 0.02 %ID/g
- percentage injected dose/gram, thymus ([2]; E2 blocked (estradiol 20 μg)): 0.10 ± 0.01 %ID/g
- percentage injected dose/gram, thymus ([2]; PPT blocked (200 μg)): 0.08 ± 0.01 %ID/g
- percentage injected dose/gram, thymus ([2]; 18 μCi iv): 0.10 ± 0.01 %ID/g
- percentage injected dose/gram, uterus ([2]; DPN blocked (200 μg)): 0.22 ± 0.03 %ID/g
- percentage injected dose/gram, uterus ([2]; E2 blocked (estradiol 20 μg)): 0.20 ± 0.04 %ID/g
- percentage injected dose/gram, uterus ([2]; PPT blocked (200 μg)): 0.19 ± 0.02 %ID/g
- percentage injected dose/gram, uterus ([2]; 18 μCi iv): 0.26 ± 0.07 %ID/g
- percentage injected dose/gram, blood ([3]; DPN blocked (200 μg)): 0.22 ± 0.03 %ID/g
- percentage injected dose/gram, blood ([3]; E2 blocked (estradiol 20 μg)): 0.25 ± 0.07 %ID/g
- percentage injected dose/gram, blood ([3]; PPT blocked (200 μg)): 0.24 ± 0.06 %ID/g
- percentage injected dose/gram, blood ([3]; 13 μCi iv): 0.22 ± 0.05 %ID/g
- percentage injected dose/gram, bone ([3]; DPN blocked (200 μg)): 0.40 ± 0.04 %ID/g
- percentage injected dose/gram, bone ([3]; E2 blocked (estradiol 20 μg)): 0.37 ± 0.04 %ID/g
- percentage injected dose/gram, bone ([3]; PPT blocked (200 μg)): 0.43 ± 0.12 %ID/g
- percentage injected dose/gram, bone ([3]; 13 μCi iv): 0.36 ± 0.04 %ID/g
- percentage injected dose/gram, fat ([3]; DPN blocked (200 μg)): 0.58 ± 0.08 %ID/g
- percentage injected dose/gram, fat ([3]; E2 blocked (estradiol 20 μg)): 0.58 ± 0.10 %ID/g
- percentage injected dose/gram, fat ([3]; PPT blocked (200 μg)): 0.68 ± 0.19 %ID/g
- percentage injected dose/gram, fat ([3]; 13 μCi iv): 0.55 ± 0.09 %ID/g
- percentage injected dose/gram, heart ([3]; DPN blocked (200 μg)): 0.18 ± 0.03 %ID/g
- percentage injected dose/gram, heart ([3]; E2 blocked (estradiol 20 μg)): 0.21 ± 0.04 %ID/g
- percentage injected dose/gram, heart ([3]; PPT blocked (200 μg)): 0.19 ± 0.04 %ID/g
- percentage injected dose/gram, heart ([3]; 13 μCi iv): 0.18 ± 0.04 %ID/g
- percentage injected dose/gram, kidney ([3]; DPN blocked (200 μg)): 0.70 ± 0.10 %ID/g
- percentage injected dose/gram, kidney ([3]; E2 blocked (estradiol 20 μg)): 0.78 ± 0.15 %ID/g
- percentage injected dose/gram, kidney ([3]; PPT blocked (200 μg)): 0.78 ± 0.19 %ID/g
- percentage injected dose/gram, kidney ([3]; 13 μCi iv): 0.64 ± 0.14 %ID/g
- percentage injected dose/gram, liver ([3]; DPN blocked (200 μg)): 1.50 ± 0.20 %ID/g
- percentage injected dose/gram, liver ([3]; E2 blocked (estradiol 20 μg)): 1.63 ± 0.26 %ID/g
- percentage injected dose/gram, liver ([3]; PPT blocked (200 μg)): 1.54 ± 0.39 %ID/g
- percentage injected dose/gram, liver ([3]; 13 μCi iv): 1.52 ± 0.23 %ID/g
- percentage injected dose/gram, lung ([3]; DPN blocked (200 μg)): 0.33 ± 0.05 %ID/g
- percentage injected dose/gram, lung ([3]; E2 blocked (estradiol 20 μg)): 0.39 ± 0.06 %ID/g
- percentage injected dose/gram, lung ([3]; PPT blocked (200 μg)): 0.45 ± 0.12 %ID/g
- percentage injected dose/gram, lung ([3]; 13 μCi iv): 0.39 ± 0.09 %ID/g
- percentage injected dose/gram, muscle ([3]; DPN blocked (200 μg)): 0.15 ± 0.01 %ID/g
- percentage injected dose/gram, muscle ([3]; E2 blocked (estradiol 20 μg)): 0.19 ± 0.05 %ID/g
- percentage injected dose/gram, muscle ([3]; PPT blocked (200 μg)): 0.19 ± 0.05 %ID/g
- percentage injected dose/gram, muscle ([3]; 13 μCi iv): 0.15 ± 0.03 %ID/g
- percentage injected dose/gram, ovaries ([3]; DPN blocked (200 μg)): 0.33 ± 0.04 %ID/g
- percentage injected dose/gram, ovaries ([3]; E2 blocked (estradiol 20 μg)): 0.44 ± 0.15 %ID/g
- percentage injected dose/gram, ovaries ([3]; PPT blocked (200 μg)): 0.37 ± 0.13 %ID/g
- percentage injected dose/gram, ovaries ([3]; 13 μCi iv): 0.30 ± 0.11 %ID/g
- blocking of ovary uptake by estradiol, DPN or PPT (in words) ([3]; ovary): nor was it substantially blocked by any of the three agents
- percentage injected dose/gram, spleen ([3]; DPN blocked (200 μg)): 0.15 ± 0.02 %ID/g
- percentage injected dose/gram, spleen ([3]; E2 blocked (estradiol 20 μg)): 0.16 ± 0.03 %ID/g
- percentage injected dose/gram, spleen ([3]; PPT blocked (200 μg)): 0.16 ± 0.05 %ID/g
- percentage injected dose/gram, spleen ([3]; 13 μCi iv): 0.15 ± 0.03 %ID/g
- percentage injected dose/gram, thymus ([3]; DPN blocked (200 μg)): 0.12 ± 0.02 %ID/g
- percentage injected dose/gram, thymus ([3]; E2 blocked (estradiol 20 μg)): 0.13 ± 0.03 %ID/g
- percentage injected dose/gram, thymus ([3]; PPT blocked (200 μg)): 0.12 ± 0.02 %ID/g
- percentage injected dose/gram, thymus ([3]; 13 μCi iv): 0.12 ± 0.03 %ID/g
- percentage injected dose/gram, uterus ([3]; DPN blocked (200 μg)): 0.23 ± 0.05 %ID/g
- percentage injected dose/gram, uterus ([3]; E2 blocked (estradiol 20 μg)): 0.38 ± 0.25 %ID/g
- percentage injected dose/gram, uterus ([3]; PPT blocked (200 μg)): 0.35 ± 0.15 %ID/g
- percentage injected dose/gram, uterus ([3]; 13 μCi iv): 0.33 ± 0.14 %ID/g
